# Earlier results, collected in US9301906B2, “Dentrifice composition” (Kao Corporation, priority 2011, dated 2016).
row,SMILES,solubility in 100 g of an aqueous solution at 20° C.
1,OC[C@@H](O)[C@@H](O[C@H]1O[C@H](CO)[C@@H](O)[C@H](O)[C@H]1O)[C@H](O)[C@@H](O)CO [maltitol],60 g in 100 g of an aqueous solution
2,OC[C@@H](O)[C@H](O)[C@@H](O)CO [xylitol],66 g in 100 g of an aqueous solution
3,OC[C@@H](O)[C@@H](O)[C@H](O)[C@H](O)CO [mannitol],18 g in 100 g of an aqueous solution

# Now from value to compound:
row,solubility in 100 g of an aqueous solution at 20° C.,SMILES
1,36 g in 100 g of an aqueous solution,OC[C@@H](O)[C@@H](O)CO [erythritol]
2,72 g in 100 g of an aqueous solution,OC[C@@H](O)[C@@H](O)[C@H](O)[C@@H](O)CO [sorbitol]
